This assay relates to Botrytis cinerea. The assay can be described thus: Activity against the gray mold pathogen Botrytis cinerea in the microtiter test (Botrci). Type of assay: cell-based. To be noted: microtiter plate, 405 nm, day 7 after inoculation. As to the method: The expected efficacies of active compound combinations were determined using Colby's formula (Colby, S. R. “Calculating synergistic and antagonistic responses of herbicide combinations”, Weeds, 15, 20-22, 1967) and compared with the observed efficacies.
E=x+y−x·y/100 • E expected efficacy, expressed in % of the untreated control, when using the mixture of the active compounds A and B at the concentrations a and b • x efficacy, expressed in % of the untreated control, when using the active compound A at the concentration a • y efficacy, expressed in % of the untreated control, when using the active compound B at the concentration b
The active compounds were formulated separately as a stock solution having a concentration of 10 000 ppm in DMSO.
The active compound epoxiconazole was used as a commercial formulation.
The stock solution is pipetted onto a microtiter plate (MTP) and diluted to the stated active compound concentration using a malt-based aqueous nutrient medium for fungi. An aqueous spore suspension of Botrytis cinerea was then added. The plates were placed in a water vapor-saturated chamber at temperatures of 18° C. Using an absorption photometer, the MTPs were measured at 405 nm on day 7 after the inoculation. The measured parameters were compared to the growth of the active compound-free control variant and the fungus- and active compound-free blank value to determine the relative growth in % of the pathogens in the individual active compounds.
The visually determined values for the percentage of infected leaf area were initially converted into a mean value and then converted into efficacies in % of the untreated control. An efficacy of 0 means the same degree of infection as in the untreated control, an efficacy of 100 means 0% infection. The expected efficacies for active compound combinations were determined using Colby's formula (Colby, S. R. (Calculating synergistic and antagonistic responses of herbicide combinations”, Weeds, 15, pp. 20-22, 1967) and compared to the observed efficacies.

As for `CO/C=C(/C(=O)OC)c1ccccc1COc1cccc(C(F)(F)F)n1` [Picoxystrobin, picoxystrobin], the “Observed effect (%)” value (conc. 0.004 ppm) worked out at 0% and the “Observed effect (%)” value (conc. 0.25 ppm) is given as 3%.
On to `Fc1ccc(C2(Cn3cncn3)OC2c2ccccc2Cl)cc1` (stereo not shown) [Epoxiconazole, epoxiconazole], for which the “Observed effect (%)” value is, setting by setting: (conc. 0.016 ppm) 15%; (conc. 0.063 ppm) 48%.

Values taken from US20090227450A1, “Triazole-Based Fungicidal Mixtures” (BASF Aktiengesellschaft, priority 2005, published 2009).
